Test results published in patent US20090048449A1, “RIMONABANT MONOHYDRATE, PROCESS FOR THE PREPARATION THEREOF AND PHARMACEUTICAL COMPOSITIONS CONTAINING SAME” (SANOFI-AVENTIS, priority 2006, published 2009).

What was measured:
Type in all cases: physicochemical
[1] = Flowability of the crystal forms by flowability / compressibility / Carr index; details: for Carr index: tap and bulk densities in graduated cylinder, data at 10 and 1250 taps, <=20% good powder flow, >21% passable to very difficult
Protocol: The flowability of the rimonabant monohydrate crystal form was measured and compared to that of the rimonabant crystal form II. The flowability of the crystal forms is measured by the flowability index or compressibility index or Carr index as described in R. L. Carr: Evaluation of flow properties of solids, Chem. Eng., 1965, 163-168 and also in the European Pharmacopeia.
The flowability index is calculated according to the following equation: IC=100×(ρt−ρb)/ρt where ρt is the tap density and ρb is the bulk density. This index is considered to be good if it is less than 20.
The densities are determined experimentally by packing the product into a graduated cylinder according to the procedure described in the European Pharmacopeia. The densities are determined after 10, 500, 1250 and 2500 taps. The Carr index is determined from the data measured at 10 and 1250 taps.
A Carr index less than or equal to 20% is considered as corresponding to a good powder flow, whereas a Carr index greater than 21% is considered as corresponding to a passable, even difficult or very difficult, powder flow.

[2] = Filterability: specific resistance of the filter cake; details: filtering crystals from the solution in which they were formed; comparison with form I and form II
Text: The improvement in filterability allows the filtration step to be shortened and leads to a significant improvement in the texture of the filter cake which is characterized by a low moisture content of the powder before drying and a low degree of residual solvent before drying. The resulting powder after drying has improved physical properties, especially in terms of flowability and therefore of handleability.

[3] = Water vapor sorption/desorption at 25° C. (SGA100 analyzer); details: sorption cycle 0-100% RH at 25° C. after degassing the monohydrate at 80° C. for 3 hours (water of hydration lost)
Protocol: Analysis of water vapor sorption/desorption measurements was carried out on the rimonabant monohydrate crystal form on a SGA100 analyzer sold by VTI (USA). It was operated between 0% and 100% relative humidity at 25° C. after degassing the monohydrate form at 80° C. for 3 hours. The rimonabant monohydrate loses its water of hydration molecule during drying at 80° C. During the water vapor sorption cycle, the conversion of the rimonabant into rimonabant monohydrate occurs starting from 40% relative humidity. The sorption/desorption isotherm is represented in FIG. 4.

In the case of `Cc1c(C(=O)NN2CCCCC2)nn(-c2ccc(Cl)cc2Cl)c1-c1ccc(Cl)cc1` [rimonabant monohydrate crystal form], the Carr index [1] is reported as 20% and the “Specific resistance of the filter cake” value [2] is reported as “less than that measured for rimonabant crystal form I and crystal form II”.

In the case of `Cc1c(C(=O)NN2CCCCC2)nn(-c2ccc(Cl)cc2Cl)c1-c1ccc(Cl)cc1` [rimonabant, N-piperidino-5-(4-chlorophenyl)-1-(2,4-dichlorophenyl)-4-methylpyrazole-3-carboxamide], the “Relative humidity from which conversion of rimonabant into rimonabant monohydrate occurs” value [3] is reported as at least 40 % relative humidity.

With `Cc1c(C(=O)NN2CCCCC2)nn(-c2ccc(Cl)cc2Cl)c1-c1ccc(Cl)cc1` [rimonabant crystal form I, N-piperidino-5-(4-chlorophenyl)-1-(2,4-dichlorophenyl)-4-methylpyrazole-3-carboxamide] the “Flowability corresponding to the Carr index (in words)” value ([1]; Carr index measured, only class in words printed) was “very difficult flowability”.

For `Cc1c(C(=O)NN2CCCCC2)nn(-c2ccc(Cl)cc2Cl)c1-c1ccc(Cl)cc1` [rimonabant crystal form II, N-piperidino-5-(4-chlorophenyl)-1-(2,4-dichlorophenyl)-4-methylpyrazole-3-carboxamide], the Carr index [1] was “around 38%”.
